In brackets after ≈: the same amount, converted by molar mass. Several values for one entry are separate records, joined by “and”; a condition that tells them apart may be missing. Equal entries are not always repeated.

The subject of one series is ear auricle of a mouse. Description: Local lymph node proliferation assay using a mouse (ear auricle irritation). The series is classed as in vivo. The conditions noted are these: for Thickness of ear auricle: 50 μL/mouse per day on both ears, once a day for 3 days, day of measurement not given; for Extent of hyperplasia: ear auricle thickness on day 3 minus day 1, 0.1 mm or greater = irritating; for General symptoms: observation during administration period. The text has this:
(Local Lymph Node Proliferation Assay using a Mouse)
(1) Administration Solution
(A) An administration solution A prepared by suspending the BIT/Zn salt obtained in Example 1 in a mixed solvent, which was composed of N,N-dimethylacetamide, acetone and ethanol and which contained the respective component at a ratio of 4:3:3 (volume ratio) (hereafter, frequently referred to as “DAE”), so as to achieve a 5% by weight solution.
(B) An administration solution B prepared by dissolving BIT in DAE so as to achieve a 5% by weight solution.
(2) Application of an Administration Solution
12.5 μL of the administration solutions A and B were respectively applied inside and outside the ear auricle of a mouse using a micropipette. This process was carried out for both ears, once a day, and for 3 days. The applied dose was 50 μL/mouse for one day.
(3) Measurement of Body Weight
Regarding the mouse provided for the experiment, the body weight thereof was measured just before the application on day 0 of the experiment, on day 3 of the experiment, and just before the dissection thereof (on day 6).
(4) Measurement of Ear Auricle Thickness
Regarding the mouse provided for the experiment, the ear auricle thickness thereof was measured on day 1 and on day 3 of the experiment, using a digital thickness gage manufactured by Teclock Corporation.
The extent of hyperplasia was calculated by the formula: (ear auricle thickness on day 3 of the experiment)—(ear auricle thickness on day 1 of the experiment). When the extent of hyperplasia was 0.1 mm or greater, it was evaluated as “irritating”.
(5) Observation of Symptoms
During the administration period, the observations were made once just before the administration and once 3 hours after the administration. During other periods, the observations were made once a day. The presence and absence of erythema in the ear auricle was observed just before the administrations on day 1, day 2 and on day 3 of the experiment, and the observations made were evaluated in scores as 0 to 16 grades.
Method for Evaluating Mouse Eears
Grades 0-9: Evaluated as possibly not irritating to humans.
Grades 10-15: Evaluated as possibly slightly irritating to humans.
Grades greater than grade 15: Evaluated as possibly irritating to humans.

The next series can be described thus: Thermal stability test. Type of series: physicochemical. As for the experimental part:
A test was carried out on the thermal stability of the BIT/Zn salt obtained in Example 1 and of BIT. As a result, BIT broke down at 300° C. or less, whereas the BIT/Zn salt remained stable even at 400° C.

For series [1], the system named is Aspergillus niger NBRC6342. The experiment in a line: Test for determining minimum concentration for inhibition of growth (agar plate dilution method), Aspergillus niger. The series is classed as cell-based. The conditions noted are these: for MIC value (mM/L) Aspergillus niger NBRC6342: MIC on a molar basis, based on the molecular weights; for MIC value: concentration of active ingredient, potato dextrose agar, strain not given in Table 2. The source says: (§1) (Test for Determining Minimum Concentration for Inhibition of Growth)
(§2) For the test samples, 3 types of samples were used; i.e., the BIT/Zn salt obtained in Example 1 (in the form of a powder containing 79.7% of active ingredients), a BIT material/SC formulation (i.e., Bestcide-NS manufactured by Nippon Soda Co., Ltd. containing 33% of active ingredients), and ZnO (zinc oxide) of 99.0% or greater (manufactured by Wako Pure Chemical Industries, Ltd.). Evaluations were made by conducting an agar plate dilution method using a potato dextrose agar medium. Two fungal strains; i.e., Aspergillus niger NBRC6342 and Cladosporium cladosporioides NBRC6348, were used as microorganisms for the test, and the BIT/Zn salt, BIT and ZnO were used at a concentration of 50 to 1,000 mg/L. The results are shown in Table 2 and Table 3. It should be noted that in Table 3, the results on the analysis of minimum inhibitory concentration (MIC) based on the molecular weights (i.e., MIC values on a molar basis) are shown.

In series [2] the test system is Cladosporium cladosporioides NBRC6348. Description: Test for determining minimum concentration for inhibition of growth (agar plate dilution method), Cladosporium cladosporioides. Type of series: cell-based. To be noted: MIC on a molar basis, based on the molecular weights.
Source text: as §1, §2

In series [3] the test system is Escherichia coli NBRC 3972. The experiment in a line: Antibacterial test using a coated film (JIS Z 2801), Escherichia coli. Type of series: cell-based. As for the experimental part: (§3) Regarding the BIT/Zn salt obtained in Example 1, an antibacterial test was carried out using a coated film.
(§4) For the samples, 2 types of samples were used; i.e., A) the BIT/Zn salt (in the form of a powder containing 79.7% of active ingredients) and B) a BIT material/SC formulation (i.e., Bestcide-NS manufactured by Nippon Soda Co., Ltd. containing 15.0% of active ingredients). For the coating material, an aqueous acrylic emulsion coating material manufactured by Nippe Home Products Co., Ltd. (a preservative-free product) was used.
(§5) (1) Preparation of Test Specimen
(§6) To a blank coating material, either A) 0.019% by weight of the BIT/Zn salt or B) 0.1% by weight of the BIT technical product/SC formulation was added, and the resultant was then stirred and mixed. The coating material to which the BIT/Zn salt was added was further subjected to an ultrasonic treatment to prepare a uniform dispersion.
(§7) Subsequently, the obtained drug-added coating materials were applied onto both sides ([…] for each side) of a sterilized filter paper having a size of 50×50 mm, and the resultant was cured at room temperature for 24 hours. Test specimens where no drug was added were also prepared in the same manner.
(§8) The test was carried out in accordance with JIS Z 2801. In other words, two strains of bacteria were used for the test; i.e., Escherichia coli NBRC 3972 (Escherichia coli) and Staphylococcus aureus NBRC 12732 (Staphylococcus aureus), and their cultures preincubated in an NA medium were diluted with a 500-fold diluted NB liquid medium to prepare bacterial suspensions for inoculation. 0.4 ml of the bacterial suspension was inoculated onto each test specimen (i.e., 50×50 mm sized filter paper with a coated film thereon), and the resultant was covered with a covering film (which was already sterilized and having a size of 45×45 mm). The prepared test specimen was put in a petri dish and incubated for 24 hours in a thermo-hygrostat at a temperature of 35±1° C. and a relative humidity of 95%. Thereafter, the sample surface and the covering film were washed using 10 ml of an SCDLP medium, and the number of bacterial cells per 1 ml of the washed out liquid was calculated by counting the number of colonies using an NA medium.
A coated film obtained using a blank coating material was used as a control.
The number of bacterial cells was observed, just after the inoculation (A), and after 24 hours of incubation (B).
2) Requirements for a Valid Test
1. {(A−B)/A}×100≦90 [A: just after the inoculation, B: after 24 hours of incubation]
2. Results of the viable cell count obtained in (A) were within a range from 1.0 to 5.0×10^5 cells per petri dish.
3. Results of the viable cell count obtained in the blank (untreated) were 1.0×10^3 or more cells per petri dish. […]

Series [4] relates to Staphylococcus aureus NBRC 12732. Description: Antibacterial test using a coated film (JIS Z 2801), Staphylococcus aureus. The series is classed as cell-based. As for the experimental part:
as §3, §4, §5, §6, §7
as §8, with “The prepared test specimen was put in a petri dish and incubated for 24 hours in a thermo-hygrostat at a temperature of 35±1° C. and a relative humidity of 95%.” left out, “medium. […]” for “medium.”

Where [5] appears, read: coated film, 24 hours at 35±1° C., 0.019% by weight BIT/Zn salt or 0.1% by weight BIT/SC in coating material.
[6] abbreviates: larger values indicate stronger antibacterial activity.
The mark [7] stands for this setting: logarithm of viable cell count after 24 hours.

Take `O=c1[nH]sc2ccccc12` [BIT, 1,2-benzoisothiazolin-3-one]: in the series with ear auricle of a mouse (5% by weight in DAE), the “Thickness of ear auricle” value worked out at 0.39 mm; the Extent of hyperplasia is 0.1 mm and 0.10 mm; the General symptoms entry is listed as “no abnormality was observed”. The same molecule returned a Grade for erythema in the series with ear auricle of a mouse (5% by weight in DAE, score 0 to 16, 0-9 possibly not irritating, 10-15 slightly irritating, >15 irritating to humans) of 16. Further, in the series on ear auricle of a mouse (criterion: extent of hyperplasia 0.1 mm or greater), the Evaluation of irritation entry is recorded as “irritating”. For the same molecule, in “Thermal stability test”, the “Thermal stability (temperature of breakdown)” value is ≤ 300 °C. In addition, in series [1], the “MIC value (mM/L) Aspergillus niger NBRC6342” value was 1.3 mM/L and the MIC value is on record as 200 mg/L (≈ 1320 µM). For the same molecule, in series [2], the “MIC value (mM/L) Cladosporium cladosporioides NBRC6348” value was <0.3 mM/L.
For the molecule `O=c1[n-]sc2ccccc12.O=c1[n-]sc2ccccc12.[Zn+2]` [BIT/Zn salt, zinc salt of BIT], in the series on ear auricle of a mouse (5% by weight in DAE), the “Thickness of ear auricle” value came out at 0.34 mm, the Extent of hyperplasia is 0.04 mm and the General symptoms entry was “attachment of white powder on the ear auricle was observed 3 hours after the administration”. Moreover, in the series “Thermal stability test”, the “Thermal stability (temperature of breakdown)” value was > 400 °C. For the same molecule, in series [1], the “MIC value (mM/L) Aspergillus niger NBRC6342” value is 2.0 mM/L and the MIC value was determined as 750 mg/L. Moreover, the “Activity level” value in series [1] (statement covers both fungal strains) is reported as “satisfactory to be put into practice”. Also, the “MIC value (mM/L) Cladosporium cladosporioides NBRC6348” value in series [2] is <0.1 mM/L. For the same molecule, the “Number of viable cells, Escherichia coli” value in series [3] (setting [5]) is on record as <10 Number of cells per petri dish. Besides, the “Antibacterial activity, Escherichia coli” value in series [3] (setting [6]) is on record as 4.9. The “Logarithmic value, Escherichia coli” value in series [3] (setting [7]) worked out at 1.0. For the same molecule, the “Antibacterial activity compared with BIT” value in series [3] (statement covers both bacterial strains of Table 4) is recorded as “same level of antibacterial activity as that of BIT”. Besides, in series [4] (setting [5]), the “Number of viable cells, Staphylococcus aureus” value was <10 Number of cells per petri dish. The “Antibacterial activity, Staphylococcus aureus” value in series [4] (setting [6]) is 3.6. The “Logarithmic value, Staphylococcus aureus” value in series [4] (setting [7]) is on record as 1.0.
For `[O]=[Zn]` [ZnO, zinc oxide], in series [1], the “MIC value (mM/L) Aspergillus niger NBRC6342” value is on record as >12.3 mM/L and the MIC value is listed as >1,000 mg/L. Besides, the “MIC value (mM/L) Cladosporium cladosporioides NBRC6348” value in series [2] was 6.10 mM/L.

The values above are taken from patent US20140107344A1, “ZINC SALT OF ISOTHIAZOLONE COMPOUND, METHOD FOR REDUCING IRRITATION CAUSED BY ISOTHIAZOLONE COMPOUND, ANTIBACTERIAL AND ANTIFUNGAL METHOD USING ZINC SALT OF ISOTHIAZOLONE COMPOUND, AND ANTIBACTERIAL AND ANTIFUNGAL COMPOSITION” (Nippon Soda Co., Ltd., priority 2007, published 2014).
